In data set [1] the test system is RKO human colon adenocarcinoma cells (RKOp27 subclone, uninduced, proliferating). Nature of the data set: Alamar Blue cell viability assay, anti-proliferative/cytotoxic activity, RKO p27 uninduced (proliferating). In kind it is cell-based. The conditions noted are these: 72 hours incubation, read-out: −log EC50 [mol/l] RKO p27 uninduced (proliferating) (converted). Here is the method: The compounds are dissolved as 10 mM solutions in DMSO and subsequently diluted in semi-logarithmic steps. DMSO dilutions are further diluted 1:100 v:v into Dulbecco's modified Eagle's medium (DMEM) containing 10% fetal calf serum to a final concentration twice as much as the final concentration in the test. RKO subclones are seeded into 96 well flat bottom plates at a density of 4000 cells per well in a volume of 50 μl per well. 24 hours after seeding the 50 μl each of the compound dilutions in DMEM medium are added into each well of the 96 well plate. Each compound dilution is tested as triplicates. Wells containing untreated control cells are filled with 50 μl DMEM medium containing 1% DMSO. The cells are then incubated with the substances for 72 hours at 37° C. in a humidified atmosphere containing 5% carbon dioxide. To determine the viability of the cells, 10 μl of an Alamar Blue solution (Biosource) are added and the fluorescence is measured at an extinction of 544 nm and an emission of 590 nm. For the calculation of the cell viability the emission value from untreated cells is set as 100% viability and the emission rates of treated cells are set in relation to the values of untreated cells. Viabilities are expressed as % values. The Graphpad Prism program is used for the calculation of EC50 values for anti-proliferative/cytotoxic activity out of the obtained dose-response curves.
Each compound dilution is tested as triplicates. Wells containing untreated control cells are filled with 50 μl DMEM medium containing 1% DMSO. The cells are then incubated with the substances for 72 hours at 37° C. in a humidified atmosphere containing 5% carbon dioxide. To determine the viability of the cells, 10 μl of an Alamar Blue solution (Biosource) are added and the fluorescence is measured at an extinction of 544 nm and an emission of 590 nm. For the calculation of the cell viability the emission value from untreated cells is set as 100% viability and the emission rates of treated cells are set in relation to the values of untreated cells. Viabilities are expressed as % values. The Graphpad Prism program (GraphPad Software, Inc) is used for the calculation of EC50 values out of the obtained dose-response curves. Viability is compared of proliferating cells grown in the absence of the inducer Ponasterone A, versus viability of cells arrested by the expression of ectopic p27Kip1 induced by Ponasterone A.
Background: Alamar Blue is a resazurin reagent that responds to reducing activity.

Regarding `Cc1ccc2[nH]c3c(c2c1)C[C@H]1C(=O)N(C)C(=O)N1[C@@H]3c1cccc(O)c1` (racemic) [Example 4, (3aSR,10RS)-10-(3-Hydroxy-phenyl)-2,6-dimethyl-3a,4,9,10-tetrahydro-2,9,10a-triaza-cyclopenta[b]fluorene-1,3-dione], in data set [1], the EC50 was at most 1000 nM.
Turning to `Cc1cccc2[nH]c3c(c12)C[C@H]1C(=O)N(C)C(=O)N1[C@@H]3c1cccc(O)c1` (racemic) [Example 5, (3aSR,10RS)-10-(3-Hydroxy-phenyl)-2,5-dimethyl-3a,4,9,10-tetrahydro-2,9,10a-triaza-cyclopenta[b]fluorene-1,3-dione], the melting point (usually the temperature of the solid-liquid transition) was 348 to 352 °C. The EC50 in data set [1] was at most 1000 nM.
The corresponding values for `COc1ccc2[nH]c3c(c2c1)C[C@H]1C(=O)N(C)C(=O)N1[C@@H]3c1cccc(O)c1` (racemic) [Example 7, (3aSR,10RS)-10-(3-Hydroxy-phenyl)-6-methoxy-2-methyl-3a,4,9,10-tetrahydro-2,9,10a-triaza-cyclopenta[b]fluorene-1,3-dione] are 172 to 175 °C and at most 1000 nM.
With `CN1C(=O)[C@@H]2Cc3c([nH]c4ccc(Br)cc34)[C@@H](c3cccc(O)c3)N2C1=O` (racemic) [Example 3, (3aSR,10RS)-6-Bromo-10-(3-hydroxy-phenyl)-2-methyl-3a,4,9,10-tetrahydro-2,9,10a-triaza-cyclopenta[b]fluorene-1,3-dione], the EC50 in data set [1] was at most 1000 nM.
`Cc1ccc2c3c([nH]c2c1)[C@@H](c1cccc(O)c1)N1C(=O)N(C)C(=O)[C@@H]1C3` (racemic) [Example 6, (3aSR,10RS)-10-(3-Hydroxy-phenyl)-2,7-dimethyl-3a,4,9,10-tetrahydro-2,9,10a-triaza-cyclopenta[b]fluorene-1,3-dione] returned a melting point of 282 to 285 °C.
Regarding `CN1C(=O)[C@@H]2Cc3c([nH]c4cc(F)ccc34)[C@@H](c3cccc(O)c3)N2C1=O` (racemic) [Example 2, (3aSR,10RS)-7-Fluoro-10-(3-hydroxy-phenyl)-2-methyl-3a,4,9,10-tetrahydro-2,9,10a-triaza-cyclopenta[b]fluorene-1,3-dione], the melting point lay within 279 to 283 °C. For the same compound, the EC50 in data set [1] was at most 1000 nM.

The record behind these values is US20110027226A1, “INDOLOPYRIDINES AS INHIBITORS OF THE KINESIN SPINDLE PROTEIN (EG5)” (4SC AG, priority 2007, published 2011).
